Entries after “also recorded” stand apart in the source; their conditions may differ.
What was measured:
[1] = tested on: p53K120Ac in ARID1A wild-type RMG1 cells with or without ARID1A knockdown; test: immunoblot of p53K120Ac, RMG1 with or without shARID1A; type: cell-based, human; conditions: 1.25 μM
Method: Expression of the indicated proteins was examined by immunoblot. GAPDH expression was used as a loading control.
(§1) For immunoblotting, protein was isolated as described in Bitler et al. Nat. Med. 2015, 21, 231-238. Briefly, protein was extracted with RIPA buffer (150 mM NaCl, 1% NP40, 0.5% sodium deoxycholate, 0.1% SDS, 50 mM Tris pH 8.0, and 1 mM PMSF). Protein was separated on a SDS-PAGE and transferred to PVDF membrane. For immunoblot of p53 post-translation modifications, cells were treated with a proteasome inhibitor MG132 (10 μM) to stabilize p53 protein.

OVCA429 cells = test: colony formation assay, control and ARID1A CRISPR OVCA429 cells; type: cell-based, human; conditions: 1.25 μM
Method: FIG. 72 illustrates control and ARID1A CRISPR OVCA429 cells treated with or without 1.25 μM ACY1215 in a colony formation assay.
FIG. 73 illustrates the quantification of ARID1A CRISPR OVCA429 cells treated with or without 1.25 μM ACY1215 in a colony formation assay; n=4 independent experiments.
Generation of ARID1A CRISPR OVCA429 cells. OVCA429 cells were transfected with CRISPR-ARID1A (pSpCas9(BB)-2A-Puro (PX459)). The ARID1A gRNA sequence is: 5′-[…]-3′ (SEQ ID NO:33). Fugene6 transfection reagent (Promega) was used as per manufacturer's specifications. Clonal populations for the loss of ARID1A expression were screened through immunoblot.
(§2) Colony formation assays were performed as follows. Cell lines were infected with lentivirus pLKO.1-shRNAs or pLKO.1-control with puromycin selection marker. Infected cells were selected with 1 μg/mL of puromycin for 72 hours and the selected cells were seeded in 12-well or 24-well plates. Cell medium was changed every three days with appropriate drug doses for 14 days or until control wells became confluent. Colonies were washed twice with PBS and fixed with 10% methanol and 10% acetic acid in distilled water. Fixed colonies were stained with 0.005% crystal violet. Integrated density was measured using NIH ImageJ software.

[2] = tested on: cells derived from Apc−/−/Pten−/−/Arid1a−/− and Apc−/−/Pten−/− tumours; test: ACY1215 sensitivity of cells derived from mouse endometrioid tumours; type: cell-based
[3] = tested on: ARID1A wild-type RMG1 cells; test: apoptosis (Annexin V, cleaved caspase 3, cleaved PARP p85) in ARID1A wild-type cells; type: cell-based, human; conditions: 1.25 μM
Method: Expression of apoptotic markers cleaved caspase 3 and cleaved PARP p85 by immunoblot. GAPDH expression was used as a loading control.
as §1
(§3) Annexin V and mitochondria membrane potentials were measured as follows. Phosphatidylserine externalization was detected using an Annexin V staining kit (Life Technologies) following the manufacturer's instructions. To measure change in mitochondria membrane potential cells were treated with 200 nM of tetramethylrhodamine, ethyl ester (TMRE; Abcam) for 15 min at 37° C. Annexin V and TMRE-positive cells were detected using the LSR18 and analyzed with the FlowJo software module.

[4] = tested on: ARID1A-mutated TOV21G cells; test: apoptosis and growth inhibition with or without p53 knockdown, TOV21G; type: cell-based, human
Method: Growth inhibition was calculated based on integrated density as measured in NIH ImageJ, and values were normalized to vehicle control. Data is representative of 3 independent experiments. Error bars represent S.E.M. The p-value was calculated via two-tailed t-test.
FIG. 91 illustrates dose responsive curves of the indicated cells treated with the HDAC6 inhibitor ACY1215; ARID1A wildtype RMG1 and OVCA429 cells were used as controls for comparison; n=4 independent experiments; error bars represent S.E.M. P-value calculated via two-tailed t-test.
FIG. 92 illustrates ARID1A-mutated TOV21G with or without p53 knockdown treated with ACY1215 (1.25 μM) or DMSO controls for 48 hours; percent apoptosis was quantified by FACS analysis based on Annexin V staining; n=3 independent experiments.
FIG. 97 illustrates ARID1A-mutated TOV21G cells with or without endogenous p53 knockdown by a shp53 that targets the 3′ UTR […] region of the human TP53 gene together with a lentivirus encoding a control, wildtype p53 or a p53K12OR mutant—the percentage of surviving cells of the indicated cells treated with ACY1215 was determined by colony formation assay; n=4 independent experiments.
Annexin V and mitochondria membrane potentials were measured as follows. Phosphatidylserine externalization was detected using an Annexin V staining kit (Life Technologies) following the manufacturer's instructions. […]

[5] = tested on: ARID1A wild-type RMG1 cells with or without shARID1A; test: mitochondrial membrane potential (TMRE, FACS), RMG1; type: cell-based, human; conditions: 1.25 μM
Method: The mitochondria membrane potential was quantified by TMRE using FACS analysis. Data was collected via FACS and is representative of 3 independent experiments.
Error bars represent standard error mean. The p-value was calculated via two-tailed t-test.
as §3

[6] = clinical trials for hematopoietic malignancies; Santo et al. Blood 2012; cited from earlier work
[7] = tested on: ARID1A-mutated TOV21G cells; test: ACY1215 sensitivity of TOV21G cells with or without wildtype ARID1A restoration; type: cell-based, human
Method: as §2

[8] = tested on: ARID1A-mutated TOV21G and OVISE cells; test: apoptosis (Annexin V, cleaved caspase 3, cleaved PARP p85) in ARID1A-mutated cells; type: cell-based, human
Method: FIG. 10 illustrates the finding that HDAC6 inhibition induces apoptosis in ARID1A-inactivated cells. […] Cells were collected and stained for apoptotic markers Annexin V. Apoptotic cells were quantified. Error bars represent standard error of the mean. The p-value was calculated via a two-tailed t-test.
FIG. 11 illustrates the results of the experiments of FIG. 10, but examined for apoptotic markers cleaved caspase 3 and cleaved PARP p85 by immunoblot. GAPDH expression was used as a loading control.
Cells were collected, incubated with an Annexin V-FITC antibody and subjected to flow cytometry analysis. Annexin V-positive cells (apoptotic) were measured with FloJo software. Mean of three independent experiments with S.E.M.
FIG. 78 illustrates percent apoptosis based on Annexin V staining in ARID1A mutated TOV21G cells treated with 1.25 μM ACY1215, 20 μM pan-caspase inhibitor Q-VD-Oph, or a combination for 48 hrs.
FIG. 79 illustrates percent apoptosis based on Annexin V staining in ARID1A mutated TOV21G cells treated with 1.25 μM ACY1215 for 48 hrs with or without knockdown of caspase 3 or caspase 9.
as §1, §3

O=C(CCCCCCNC(=O)c1cnc(N(c2ccccc2)c2ccccc2)nc1)NO [rocilinostat, 2-(diphenylamino)-N-(7-(hydroxyamino)-7-oxoheptyl)pyrimidine-5-carboxamide]
p53K120Ac in ARID1A knockdown cells compared with controls [1]: significant increase in p53K120Ac | effect of ARID1A knockout on sensitivity (OVCA429 cells): significantly increased the sensitivity | sensitivity of Apc−/−/Pten−/−/Arid1a−/− tumour cells compared with Apc−/−/Pten−/− tumour cells [2]: more sensitive | apoptosis in ARID1A wild type cells [3]: did not induce a significant increase in apoptosis | markers of apoptosis in ARID1A wild-type cells with ARID1A knockdown ([3]; shARID1A): significantly increased markers of apoptosis | effect of p53 knockdown on apoptosis and growth inhibition induced by the compound [4]: significantly impaired the apoptosis and growth inhibition | rescue of p53 knockdown-mediated impairment of compound-induced growth inhibition ([4]; wildtype p53 or p53K120R): wildtype p53 but not the p53K120R mutant rescued | mitochondrial membrane potential, ARID1A knockdown compared with controls [5]: significantly decreased | tolerability in clinical studies [6]: well-tolerated without a dose-limiting toxicity; also recorded: well-tolerated and show minimal toxicity | effect of restoration of wildtype ARID1A on sensitivity [7]: reduced the sensitivity | apoptosis induced by the compound after knockdown of Caspase 8 [8]: did not affect the apoptosis | apoptosis induced by the compound after knockdown of caspase 9 or caspase 3 ([8]; TOV21G, 1.25 μM, 48 hrs): significantly suppressed the apoptosis | apoptosis: Annexin V positive cells, cleaved caspase 3, cleaved PARP p85 ([8]; rocilinostat 1.25 μM, 48 hours): induced apoptosis

Source: US20190192521A1, “Methods of Treating Arid1A-Mutated Cancers With HDAC6 Inhibitors and EZH2 Inhibitors” (The Wistar Institute of Anatomy and Biology, priority 2016, published 2019)
